Experimental findings from US11365199B2, “Pyrazole compounds as modulators of FSHR and uses thereof” (Merck Patent GmbH, priority 2013, dated 2022) are described below.

This assay concerns the target T1, FSHR (Homo sapiens, UniProt P23945).
T1 construct: expressed in transfected cells; host or cells: CHO (Cho-FSHR-LUC-1-1-43)
T1 sequence (P23945 18-695): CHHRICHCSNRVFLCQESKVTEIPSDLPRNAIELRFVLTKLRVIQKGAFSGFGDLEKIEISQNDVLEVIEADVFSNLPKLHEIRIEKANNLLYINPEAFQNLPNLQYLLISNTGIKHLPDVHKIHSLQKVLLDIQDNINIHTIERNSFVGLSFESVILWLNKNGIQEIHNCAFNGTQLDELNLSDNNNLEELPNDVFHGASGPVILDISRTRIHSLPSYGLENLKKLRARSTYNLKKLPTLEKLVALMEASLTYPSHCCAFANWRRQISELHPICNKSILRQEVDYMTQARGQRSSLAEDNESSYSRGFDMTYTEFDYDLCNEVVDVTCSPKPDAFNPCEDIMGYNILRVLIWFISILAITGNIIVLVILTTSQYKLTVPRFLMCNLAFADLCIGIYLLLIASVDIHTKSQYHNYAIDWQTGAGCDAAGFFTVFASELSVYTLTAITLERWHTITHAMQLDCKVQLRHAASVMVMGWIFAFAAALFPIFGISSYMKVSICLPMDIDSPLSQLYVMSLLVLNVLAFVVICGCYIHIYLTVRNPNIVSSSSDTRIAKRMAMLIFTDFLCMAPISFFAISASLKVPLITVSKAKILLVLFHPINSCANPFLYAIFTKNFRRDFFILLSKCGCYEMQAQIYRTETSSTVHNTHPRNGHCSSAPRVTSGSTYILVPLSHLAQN
Nature of the assay: EC50 of cyclic AMP production in CHO FSHR cells + EC20 FSH (Assay A). The assay is classed as cell-based. As for the experimental part: EC50 of Cyclic AMP Production in CHO FSHR Cells+EC20 FSH (Assay A)
2500 Cho-FSHR-LUC-1-1-43 cells were plated per well in 5 μl of phenol red free DMEM/F12+1% FBS. Cells were plated in 384 well, solid white low volume plates (Greiner 784075) by Multidrop. Cells were assayed by adding 100 μl of 2×EC20 FSH/IBMX in DMEM/F12+0.1% BSA) by Multidrop to 2 μl of test compound stamped in 384 well plates (compounds are diluted 1:50). The final FSH concentration was […], and the final IBMX concentration was 200 μM. The compound plate map was as follows: Column 1: 2 μl of DMSO; Column 2: 2 μl of DMSO; Columns 3-12 and 13-24: 2 μl of test compound, diluted 1:4 in 100% DMSO, or 2 μl of FSH, diluted 1:4 in DMEM/F12+0.1% BSA. The starting concentration for FSH was 50 nM (final concentration was 0.5 nM). Furthermore, Column 23 contained 2 μl of EC100 FSH reference (100×) (diluted in DMEM/F12+0.1% BSA) at a final concentration of 0.5 nM, and Column 24 contained 2 μl of 1 mM AS707664/2 reference compound 2. 5 μl of compound+EC20 FSH mixture were transferred to cell plates (1:2 dilution into 5 μl of cell media) The plates were incubated at 37° C. for 1 h. 10 μl of mixed HTRF (CisBio #62AM4PEC) reagents were added per well and incubated at room temperature for 1 h. The plates were read on Envision using the cAMP HTRF—low volume 384 well protocol. The readout was the calculated fluorescence ratio (665 nm/620 nm). Values given in percent (%) indicate the percental effect (response) at a certain concentration of agonist relative to the maximum response of the FSH standard.

Setting [1] is: CHO FSHR cells + EC20 FSH, cAMP HTRF, read-out: Assay A: EC50 of cyclic AMP production.

Read-outs that look alike come from different tables or passages of the source.

What is called EC50 is the concentration needed to bring the measured effect to its halfway point. Consider `COc1cc2c(cc1-c1cnoc1)-c1c(c(C(=O)N(C)C(C)(C)C)nn1-c1ccsc1)CO2` [Compound 72, 8-Isoxazol-4-yl-7-methoxy-1-thiophen-3-yl-1,4-dihydro-chromeno[4,3-c]pyrazole-3-carboxylic acid tert-butyl-methyl-amide], for which the EC50 under setting [1] was below 100 nM.
As for `COc1cc2c(cc1-c1cn(C)cn1)-c1c(c(C(=O)N(C)C(C)(C)C)nn1-c1ccsc1)CO2` [Compound 129, 7-Methoxy-8-(1-methyl-1H-imidazol-4-yl)-1-thiophen-3-yl-1,4-dihydro-chromeno[4,3-c]pyrazole-3-carboxylic acid tert-butyl-methyl-amide], the EC50 under setting [1] is below 100 nM.
In the case of `COc1cc2c(cc1-c1ccn(C)n1)-c1c(c(C(=O)NCC3(O)COC3)nn1-c1ccsc1)CO2` [Compound 165, 7-Methoxy-8-(1-methyl-1H-pyrazol-3-yl)-1-thiophen-3-yl-1,4-dihydro-chromeno[4,3-c]pyrazole-3-carboxylic acid (3-hydroxy-oxetan-3-ylmethyl)-amide], the EC50 under setting [1] is above 5000 nM.
On the same count and under the same terms, the result for `[2H]C([2H])([2H])NC(=O)[C@H]1CCC[C@@H](N(C(=O)c2nn(-c3ccsc3)c3c2COc2cc(OC)c(C=C(C)C)cc2-3)C([2H])([2H])[2H])C1` [Compound 107] reads above 5000 nM; that for `COc1cc2c(cc1-c1ccn(C)n1)-c1c(c(C(=O)NC(C)(CO)CO)nn1-c1ccsc1)CO2` [Compound 185, 7-Methoxy-8-(1-methyl-1H-pyrazol-3-yl)-1-thiophen-3-yl-1,4-dihydro-chromeno[4,3-c]pyrazole-3-carboxylic Acid (2-hydroxy-1-hydroxymethyl-1-methyl-ethyl)-amide], 100 to 1000 nM; that for `COc1cc2c(cc1-c1cc(C)n(C)c1C)-c1c(c(C(=O)N3CCOCC3(C)C)nn1-c1ccsc1)CO2` [Compound 120, (3,3-Dimethyl-morpholin-4-yl)-[7-methoxy-1-thiophen-3-yl-8-(1,2,5-trimethyl-1H-pyrrol-3-yl)-1,4-dihydro-chromeno[4,3-c]pyrazol-3-yl]-methanone], below 100 nM.
In the case of `COc1cc2c(cc1-c1ccn(C)n1)-c1c(c(C(=O)O[C@H]3CC[C@H](N)C3)nn1-c1ccsc1)CO2` [Compound 180, 7-Methoxy-8-(1-methyl-1H-pyrazol-3-yl)-1-thiophen-3-yl-1,4-dihydro-chromeno[4,3-c]pyrazole-3-carboxylic Acid (1S,3S)-3-amino-cyclopentyl Ester], the EC50 under setting [1] is below 100 nM.
Same read-out and setting: the result for `COc1cc2c(cc1-c1ccn(C)n1)-c1c(c(C(=O)N[C@H]3CC[C@@H](O)C3)nn1-c1ccsc1)CO2` [Compound 172, 7-Methoxy-8-(1-methyl-1H-pyrazol-3-yl)-1-thiophen-3-yl-1,4-dihydro-chromeno[4,3-c]pyrazole-3-carboxylic acid ((1S,3R)-3-hydroxy-cyclopentyl)-amide] reads above 5000 nM.
Same read-out and setting: as for `COc1cc2c(cc1C=C(C)C)-c1c(c(C(=O)N3CCCC(N)CC3)nn1-c1ccsc1)CO2` (stereo not drawn) [Compound 36, (4-Amino-azepan-1-yl)-[7-methoxy-8-(2-methyl-propenyl)-1-thiophen-3-yl-1,4-dihydro-chromeno[4,3-c]pyrazol-3-yl]-methanone], the figure is 100 to 1000 nM; as for `COc1cc2c(cc1C1=CCCO1)-c1c(c(C(=O)N(C)C(C)(C)C)nn1-c1ccsc1)CO2` [Compound 74, 8-(4,5-Dihydro-furan-2-yl)-7-methoxy-1-thiophen-3-yl-1,4-dihydro-chromeno[4,3-c]pyrazole-3-carboxylic acid tert-butyl-methyl-amide], below 100 nM.
Consider `COc1cc2c(cc1C=C(C)C)-c1c(c(C(=O)N3CCC[C@@H](C(=O)N4CCC4)CC3)nn1-c1ccsc1)CO2` [Compound 45, [(R)-4-(Azetidine-1-carbonyl)-azepan-1-yl]-[7-methoxy-8-(2-methyl-propenyl)-1-thiophen-3-yl-1,4-dihydro-chromeno[4,3-c]pyrazol-3-yl]-methanone], for which the 50% effective concentration (EC50) under setting [1] was 100 to 1000 nM.
For `COc1cc2c(cc1C=C(C)C)-c1c(c(C(=O)N3CCCC(NC(=O)C4CCC4)CC3)nn1-c1ccsc1)CO2` (stereo not drawn) [Compound 37, Cyclobutanecarboxylic acid {1-[7-methoxy-8-(2-methyl-propenyl)-1-thiophen-3-yl-1,4-dihydro-chromeno[4,3-c]pyrazole-3-carbonyl]-azepan-4-yl}-amide], the EC50 under setting [1] was in the range of 1000 to 5000 nM.
On to `COc1cc2c(cc1CC(C)C)-c1c(c(C(=O)N3CCOCC3(C)C)nn1-c1ccsc1)CO2` [Compound 77, (3,3-Dimethyl-morpholin-4-yl)-(8-isobutyl-7-methoxy-1-thiophen-3-yl-1,4-dihydro-chromeno[4,3-c]pyrazol-3-yl)-methanone], for which the EC50 under setting [1] is below 100 nM.
With `COc1cc2c(cc1C=C(C)C)-c1c(c(C(=O)N3CCCC(NC(=O)OC(C)(C)C)CC3)nn1-c1ccsc1)CO2` (stereo not drawn) [Compound 35, {1-[7-Methoxy-8-(2-methyl-propenyl)-1-thiophen-3-yl-1,4-dihydro-chromeno[4,3-c]pyrazole-3-carbonyl]-azepan-4-yl}-carbamic acid tert-butyl ester], under setting [1], the EC50 was in the range of 1000 to 5000 nM.
Still for that read-out and setting: the result for `[2H]C([2H])([2H])O[C@H]1CC[C@H](N(C(=O)c2nn(-c3ccsc3)c3c2COc2cc(OC)c(-c4ccn(C)c4)cc2-3)C([2H])([2H])[2H])C1` [Compound 197] reads 1000 to 5000 nM; that for `C=CCn1cc(-c2cc3c(cc2OC)OCc2c(C(=O)N4CCOCC4(C)C)nn(-c4ccsc4)c2-3)cn1` [Compound 207, [8-(1-Allyl-1H-pyrazol-4-yl)-7-methoxy-1-thiophen-3-yl-1,4-dihydro-chromeno[4,3-c]pyrazol-3-yl]-(3,3-dimethyl-morpholin-4-yl)-methanone], below 100 nM.
For the compound `COc1ccc2c(c1)OCc1c(C(=O)N(C)C(C)(C)C)nn(-c3ccsc3)c1-2` [Compound 133, 7-Methoxy-1-thiophen-3-yl-1,4-dihydro-chromeno[4,3-c]pyrazole-3-carboxylic Acid tert-butyl-methyl-amide], the EC50 lay within 1000 to 5000 nM.
As for `COc1cc2c(cc1C=C(C)C)-c1c(c(C(=O)NCCCNC(C)=O)nn1-c1ccsc1)CO2` [Compound 8, 7-Methoxy-8-(2-methyl-propenyl)-1-thiophen-3-yl-1,4-dihydro-chromeno[4,3-c]pyrazole-3-carboxylic acid (3-acetylamino-propyl)-amide], the EC50 under setting [1] is above 5000 nM.
The same measure, in the same setting: as for `CNC(=O)c1nn(-c2ccsc2)c2c1COc1cc(OC)c(-c3cn[nH]c3)cc1-2` [Compound 22, 7-Methoxy-8-(1H-pyrazol-4-yl)-1-thiophen-3-yl-1,4-dihydro-chromeno[4,3-c]pyrazole-3-carboxylic Acid Methylamide], the figure is 1000 to 5000 nM.
`COc1cc2c(cc1-c1c[nH]nc1C)-c1c(c(C(=O)NC3CCOC3)nn1-c1ccsc1)CO2` (stereo not drawn) [Compound 135, 7-Methoxy-8-(3-methyl-1H-pyrazol-4-yl)-1-thiophen-3-yl-1,4-dihydro-chromeno[4,3-c]pyrazole-3-carboxylic acid (tetrahydro-furan-3-yl)-amide]: the concentration giving a half-maximal response (EC50) under setting [1] lay within 1000 to 5000 nM.
On to `COc1cc2c(cc1C(O)C(C)(C)O)-c1c(c(C(=O)N(C)C(C)(C)C)nn1-c1ccsc1)CO2` (stereo not drawn) [Compound 38, 8-(1,2-Dihydroxy-2-methyl-propyl)-7-methoxy-1-thiophen-3-yl-1,4-dihydro-chromeno[4,3-c]pyrazole-3-carboxylic Acid tert-butyl-methyl-amide], for which the EC50 under setting [1] was 1000 to 5000 nM.
